# From patent publication US20010007866A1, “TREATMENT OF PRURITUS WITH VITAMIN D AND ANALOGS THEREOF” (priority 1995, published 2001)
# “And” between values parts separate entries of the source, which are not always exact repeats. Equal entries are not always repeated.
# What was measured:
# pruritus of sunburn = experiment: Topical application to pruritus of sunburn (subject two); assay type: in vivo, human
# Experimental: A corn oil solution of vitamin D3 was prepared by adding 1 gram of vitamin D3 to 20 ml corn oil with mixing for approximately 1 hour followed by brief heating to approximately 45° C. until dissolved. One ml of this solution was mixed with 47 ml corn oil and 2 ml isopropyl myristate to obtain a final concentration of vitamin D3 of 1000 μg/ml.
# Subject two developed a sunburn on the back and experienced severe pruritus. […] The pruritus abated completely about one-half hour after these applications.
# [1] = tested on: pruritus caused by poison ivy; experiment: Topical application to poison ivy rash, pruritic score on 100 mm visual analog scale (subject one); assay type: in vivo, human
# Experimental: Testing Procedure: Subject one contracted poison ivy rash and tested the various preparations above. Preparations were evaluated by the subject after application to an area of rash approximately 1-10 square centimeters. Comparisons were made of antipruritic effect by marking on a 100 mm visual analog scale consisting of a plain line with the left end labeled “None” and the right end labeled “Maximal”. The subject was instructed to mark the scale at a point which they felt corresponded to the level of itchiness that they were feeling at the treatment site at the appropriate time. The samples were coded so that the subject was not aware of what a given sample was and they were not told if they were expected to have an effect. They carried out the evaluation unaided, applying the samples in any order they chose except where side-by-side comparisons were made as indicated in the tables. From the marked scale the pruritic score was determined as the number of mm from the left side of the scale to the subject's mark. Thus a higher value indicates a high level or pruritus and a low value indicates a low level to no pruritus.
# The patient and test procedures were as described in example 3. The results of tests using oil-based formulations are in tables 2a through 2c.
# The patient and test procedures were as described in example 3. The results of tests using oil-based formulations are in Table 3.
# Serial dilutions of Vita Moist Cream were made from an initial 5 ml quantity of Vita Moist Cream by adding successive 5 ml quantities of the diluent, Care Deeply Cream, to the starting formulation and subsequent 5 ml aliquots of successive dilutions as follows:
# After coding with numbers 1-6 as above, the preparations were randomly sorted and again coded […] and tested two at a time in alphabetical order. […] The minimal effective concentration in this formulation appears to be between 1.25 and 2.5 μg/ml.
compound,measurement,setting,value
"C=C1CC[C@H](O)C/C1=C/C=C1\CCC[C@]2(C)[C@@H]([C@H](C)CCCC(C)C)CC[C@@H]12 [Vitamin D3, cholecalciferol]",antipruritic effect (in words),pruritus of sunburn; 1000 μg/ml in corn oil,immediately and completely alleviated
same,time until the pruritus returned,pruritus of sunburn; after 1000 μg/ml in corn oil,one and one-half
same,"antipruritic effect (in words, no scores recorded)","[1]; 869 μg/ml in Eucerin lotion, compared with Eucerin plus corn oil control",stopped the pruritus instantly and completely
same,antipruritic effect (in words),"[1]; Keri lotion as vehicle, Table 1b",rapid and complete antipruritic effect
same,pruritic score (100 mm visual analog scale),"[1]; Keri lotion with added isopropyl myristate, 52 μg/ml, time 0 min",77 mm
same,pruritic score (100 mm visual analog scale),"[1]; Keri lotion with added isopropyl myristate, 52 μg/ml, time 1 min",35 mm
same,pruritic score (100 mm visual analog scale),"[1]; Keri lotion with added isopropyl myristate, 52 μg/ml, time 5 min",0 mm
same,pruritic score (100 mm visual analog scale),"[1]; Keri lotion with added isopropyl myristate, 52 μg/ml, time 10 min",0 mm
same,pruritic score (100 mm visual analog scale),"[1]; Keri lotion with added isopropyl myristate, 502 μg/ml, time 0 min",80 mm
same,pruritic score (100 mm visual analog scale),"[1]; Keri lotion with added isopropyl myristate, 502 μg/ml, time 1 min",0 mm
same,pruritic score (100 mm visual analog scale),"[1]; Keri lotion with added isopropyl myristate, 502 μg/ml, time 5 min",0 mm
same,pruritic score (100 mm visual analog scale),"[1]; Keri lotion with added isopropyl myristate, 502 μg/ml, time 10 min",0 mm
same,pruritic score (100 mm visual analog scale),"[1]; Keri lotion with added isopropyl myristate, 869 μg/ml, time 0 min",82 mm
same,pruritic score (100 mm visual analog scale),"[1]; Keri lotion with added isopropyl myristate, 869 μg/ml, time 1 min",0 mm
same,pruritic score (100 mm visual analog scale),"[1]; Keri lotion with added isopropyl myristate, 869 μg/ml, time 5 min",0 mm
same,pruritic score (100 mm visual analog scale),"[1]; Keri lotion with added isopropyl myristate, 869 μg/ml, time 10 min",0 mm
same,pruritic score (100 mm visual analog scale),"[1]; Keri lotion, 10 μg/ml, no isopropyl myristate, time 0 min, single tests",78 mm and 80 mm
same,pruritic score (100 mm visual analog scale),"[1]; Keri lotion, 10 μg/ml, no isopropyl myristate, time 1 min, single tests",0 mm
same,pruritic score (100 mm visual analog scale),"[1]; Keri lotion, 10 μg/ml, no isopropyl myristate, time 5 min, single tests",0 mm
same,pruritic score (100 mm visual analog scale),"[1]; Keri lotion, 10 μg/ml, no isopropyl myristate, time 10 min, single tests",0 mm
same,pruritic score (100 mm visual analog scale),"[1]; Keri lotion, 10 μg/ml, with isopropyl myristate, time 0 min, single tests",80 mm and 77 mm
same,pruritic score (100 mm visual analog scale),"[1]; Keri lotion, 10 μg/ml, with isopropyl myristate, time 5 min, single tests",0 mm
same,pruritic score (100 mm visual analog scale),"[1]; Keri lotion, 10 μg/ml, with isopropyl myristate, time 10 min, single tests",0 mm
same,"pruritic score, Mean","[1]; Keri lotion, 10 μg/ml, mean of four tests (with and without isopropyl myristate), time 0 min",79 mm
same,"pruritic score, Mean","[1]; Keri lotion, 10 μg/ml, mean of four tests (with and without isopropyl myristate), time 1 min",0 mm
same,"pruritic score, Mean","[1]; Keri lotion, 10 μg/ml, mean of four tests (with and without isopropyl myristate), time 5 min",0 mm
same,"pruritic score, Mean","[1]; Keri lotion, 10 μg/ml, mean of four tests (with and without isopropyl myristate), time 10 min",0 mm
same,pruritic score (100 mm visual analog scale),"[1]; Keri lotion, 521 μg/ml, no isopropyl myristate, time 0 min",80 mm
same,pruritic score (100 mm visual analog scale),"[1]; Keri lotion, 521 μg/ml, no isopropyl myristate, time 1 min",81 mm
same,pruritic score (100 mm visual analog scale),"[1]; Keri lotion, 521 μg/ml, no isopropyl myristate, time 5 min",0 mm
same,pruritic score (100 mm visual analog scale),"[1]; Keri lotion, 521 μg/ml, no isopropyl myristate, time 10 min",0 mm
same,antipruritic effect (in words),"[1]; Keri lotion, concentrations from 10 through 869 μg/ml, Table 1c",effective in rapidly and effectively relieving pruritus
same,antipruritic effect (in words),"[1]; Vita Moist Cream diluted with Care Deeply Cream, 1.25 μg/ml and 0.5 μg/ml",some antipruritic effect but the effect was not complete nor was it rapid and sustained
same,antipruritic effect (in words),"[1]; Vita Moist Cream diluted with Care Deeply Cream, 2.5 and 5 μg/ml",rapid and complete alleviation of pruritus
same,antipruritic effect (in words),"[1]; corn oil vehicle, 1000 μg/ml, mean of two tests compared to vehicle control",no detectable antipruritic effect
same,"pruritic score, Mean","[1]; corn oil, 1000 μg/ml, mean of two tests, time 0 min",81 mm
same,"pruritic score, Mean","[1]; corn oil, 1000 μg/ml, mean of two tests, time 1 min",81 mm
same,"pruritic score, Mean","[1]; corn oil, 1000 μg/ml, mean of two tests, time 5 min",70 mm
same,"pruritic score, Mean","[1]; corn oil, 1000 μg/ml, mean of two tests, time 10 min",59 mm
same,pruritic score (100 mm visual analog scale),"[1]; corn oil, 1000 μg/ml, time 0 min, tests 1 and 2",80 mm and 81 mm
same,pruritic score (100 mm visual analog scale),"[1]; corn oil, 1000 μg/ml, time 1 min, tests 1 and 2",80 mm and 81 mm
same,pruritic score (100 mm visual analog scale),"[1]; corn oil, 1000 μg/ml, time 5 min, tests 1 and 2",81 mm and 58 mm
same,pruritic score (100 mm visual analog scale),"[1]; corn oil, 1000 μg/ml, time 10 min, tests 1 and 2",60 mm and 58 mm
same,lowest concentration found to have an anti-pruritic effect,[1]; non-aqueous vehicle,521 µg/mL
same,antipruritic effect (in words),"[1]; petroleum jelly vehicle, 521 μg/ml",an antipruritic effect
same,pruritic score (100 mm visual analog scale),"[1]; petroleum jelly, 521 μg/ml, time 0 min",72 mm
same,pruritic score (100 mm visual analog scale),"[1]; petroleum jelly, 521 μg/ml, time 1 min",11 mm
same,pruritic score (100 mm visual analog scale),"[1]; petroleum jelly, 521 μg/ml, time 5 min",10 mm
same,pruritic score (100 mm visual analog scale),"[1]; petroleum jelly, 521 μg/ml, time 10 min",9 mm
same,effective concentration,[1]; suspension of water and a dispersed phase,12.5 µg/mL
same,lowest effective concentration,[1]; water-based emulsion formulation,2.5 µg/mL
